Measured values: patent publication US20020160055A1, “Methods for treating human immunodeficiency virus infections with gallium compositions” (priority 2000, published 2002)

Tests used:
HIV = settings: results of U.S. Pat. No. 5,525,598; cited from earlier work
PBMC = assay: Effects on PBMC proliferation and viability (Trypan blue staining and counting); format: cell-based, human; settings: 48 hrs
Experimental: FIG. 4—Effects of Gallium Nitrate on PBMC Proliferation and Viability. Experiments were carried out in duplicate, and experiments repeated a minimum of three times. Gallium nitrate (Ga) was obtained from the National Cancer Institute. Cells were incubated in Ga at concentrations noted, and were stained at 48 hrs with Trypan blue and counted.
(§1) Various concentrations of Ga or HU were added to PHA/IL2 stimulated PBMC's 24 hours prior to infection with HIV. Following infection, cells were washed and culture supernatants were obtained 4 and 7 days post-infection.

HIV-1 = assay: Inhibition of HIV replication in PHA/IL2 stimulated PBMC's (p24 antigen in culture supernatants); format: cell-based
Experimental: FIG. 1—Gallium Nitrate and Hydroxyurea Inhibition of HIV-1 Replication. PHA/IL-2 stimulated human PBMC's (1×10^6), and MT-2 cells (1×10^6) were grown and maintained in RPMI 1640 media containing 20% fetal calf sera, glutamine and antibiotics (Thelander & Reichard, 1979). Experiments were carried out in duplicate, and experiments repeated a minimum of three times. Gallium nitrate (Ga) was obtained from the National Cancer Institute. Hydroxyurea (HU) was obtained from Sigma Chemicals (St. Louis, Mo.). Ga and HU were added to PBMC's 24 hrs prior to infection, and cells were washed 16 hrs post-infection. Culture supernatants were obtained 4 and 7 days post-infection for p24 antigen measurement.
as §1
HIV (Catalog# 1073, NIH AIDS Reference Program) was used in these studies. […] Viral replication was measured by determining the concentration of p24 antigen in culture supernatants (Organon-Teknika), and by visually observing a reduction in syncytia formation (Cook et al., 1997). In addition, a quantitative measurement of syncytia induction—inhibition was employed (described below). […]

Q: For `Cc1cn([C@H]2C[C@H](N=[N+]=[N-])[C@@H](CO)O2)c(=O)[nH]c1=O` [3′-azido-2,3′-deoxythymidine], which therapeutic index (HIV) is on record?
A: 3680

Q: With `O=[N+]([O-])[O-].O=[N+]([O-])[O-].O=[N+]([O-])[O-].[Ga+3]` [Ga, Gallium nitrate] as the molecule, how does the “effect on cellular proliferation or viability at concentrations inhibiting HIV replication” value (PBMC) read?
A: did not inhibit cellular proliferation or viability

Q: What about the “fold lower IC50 of Ga than HU” value (HIV-1; present culture system) of the same molecule?
A: approximately 15 fold

Q: For `NC(=O)NO` [HU, Hydroxyurea], which IC50 (HIV-1; Human immunodeficiency virus 1, PHA/IL2 stimulated PBMC's, added 24 hours prior to infection, supernatants 4 and 7 days post-infection) is on record?
A: 120 µM
